As a reminder, the IC50 is the concentration needed to halve the response being measured. Low readings indicate greater potency, high ones weaker potency. Broadly, the solubility is the concentration that dissolves in the medium under given conditions. A lower solubility goes with little dissolved substance.

Data on 11 compounds can be found in ChEMBL document CHEMBL1139073, “Inhibition of Src kinase activity by 7-ethynyl-4-phenylamino-3-quinolinecarbonitriles: identification of SKS-927” (Bioorg Med Chem Lett, 2007).

For data set [1], the target named is Proto-oncogene tyrosine-protein kinase Src (Homo sapiens, UniProt P12931). Nature of the data set: Inhibition of Src activity. It counts as functional.
The target in data set [2] is Proto-oncogene tyrosine-protein kinase Src (Rattus norvegicus, UniProt Q9WUD9). As to the kind of experiment: Inhibition of Src in rat fibroblasts.
Data set [3] concerns the target RAC-alpha serine/threonine-protein kinase (Homo sapiens, UniProt P31749). Nature of the data set: Inhibition of AKT.
For data set [4], the target named is Cyclin-dependent kinase 4 (Homo sapiens, UniProt P11802). As to the kind of experiment: Inhibition of CDK4.
A short description of data set [5]: Inhibition of IGFR. Also noted: species or system Homo sapiens.
Data set [6] concerns the target Vascular endothelial growth factor receptor 2 (Homo sapiens, UniProt P35968). Nature of the data set: Inhibition of KDR.
Data set [7] in a line: Permeability across artificial membrane by PAMPA. As to conditions: read-out: permeability. It counts as ADME. In general terms: The PAMPA barrier holds no transporters, so it reflects passive diffusion.
Data set [8] can be described thus: Solubility at neutral pH. In kind it is physicochemical.
Data set [9] in a line: Solubility at pH 4.5. In kind it is physicochemical. As to conditions: buffer.
Data set [10] has as its target Epidermal growth factor receptor (Homo sapiens, UniProt P00533).

≈ marks a conversion by molar mass, not a printed value.

Sequence of Proto-oncogene tyrosine-protein kinase Src (Homo sapiens, UniProt P12931) (P12931 2-536 limits assumed): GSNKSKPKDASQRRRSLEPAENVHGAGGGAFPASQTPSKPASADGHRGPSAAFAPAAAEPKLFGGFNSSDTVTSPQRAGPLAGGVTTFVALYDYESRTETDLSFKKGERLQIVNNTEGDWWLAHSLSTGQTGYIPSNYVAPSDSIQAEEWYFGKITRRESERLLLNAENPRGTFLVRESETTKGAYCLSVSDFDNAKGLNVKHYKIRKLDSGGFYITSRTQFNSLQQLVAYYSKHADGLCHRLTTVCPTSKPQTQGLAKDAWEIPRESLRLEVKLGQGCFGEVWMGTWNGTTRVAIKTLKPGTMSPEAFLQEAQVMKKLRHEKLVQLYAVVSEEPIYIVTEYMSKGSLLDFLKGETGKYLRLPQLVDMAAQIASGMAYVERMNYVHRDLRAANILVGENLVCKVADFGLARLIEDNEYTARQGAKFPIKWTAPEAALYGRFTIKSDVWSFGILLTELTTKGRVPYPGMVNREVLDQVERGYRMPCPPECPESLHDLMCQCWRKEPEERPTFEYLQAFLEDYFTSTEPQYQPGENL
Sequence of Proto-oncogene tyrosine-protein kinase Src (Rattus norvegicus, UniProt Q9WUD9) (Q9WUD9 2-536 limits assumed): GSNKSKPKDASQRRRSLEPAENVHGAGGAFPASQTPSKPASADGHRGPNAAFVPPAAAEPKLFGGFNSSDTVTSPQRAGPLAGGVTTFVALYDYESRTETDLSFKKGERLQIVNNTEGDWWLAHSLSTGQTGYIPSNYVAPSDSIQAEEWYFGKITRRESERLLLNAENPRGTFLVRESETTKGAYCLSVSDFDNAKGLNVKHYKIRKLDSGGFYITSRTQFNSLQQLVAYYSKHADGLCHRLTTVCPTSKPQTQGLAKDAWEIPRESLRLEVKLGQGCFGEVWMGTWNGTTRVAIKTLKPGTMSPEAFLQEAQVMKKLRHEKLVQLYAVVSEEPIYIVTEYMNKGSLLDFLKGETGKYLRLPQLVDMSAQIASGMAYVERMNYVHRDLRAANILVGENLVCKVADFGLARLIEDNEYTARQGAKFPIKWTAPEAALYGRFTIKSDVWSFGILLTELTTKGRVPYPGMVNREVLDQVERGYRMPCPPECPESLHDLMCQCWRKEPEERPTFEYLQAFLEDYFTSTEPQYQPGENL
Sequence of Vascular endothelial growth factor receptor 2 (P35968 whole entry, the tested form may be a part): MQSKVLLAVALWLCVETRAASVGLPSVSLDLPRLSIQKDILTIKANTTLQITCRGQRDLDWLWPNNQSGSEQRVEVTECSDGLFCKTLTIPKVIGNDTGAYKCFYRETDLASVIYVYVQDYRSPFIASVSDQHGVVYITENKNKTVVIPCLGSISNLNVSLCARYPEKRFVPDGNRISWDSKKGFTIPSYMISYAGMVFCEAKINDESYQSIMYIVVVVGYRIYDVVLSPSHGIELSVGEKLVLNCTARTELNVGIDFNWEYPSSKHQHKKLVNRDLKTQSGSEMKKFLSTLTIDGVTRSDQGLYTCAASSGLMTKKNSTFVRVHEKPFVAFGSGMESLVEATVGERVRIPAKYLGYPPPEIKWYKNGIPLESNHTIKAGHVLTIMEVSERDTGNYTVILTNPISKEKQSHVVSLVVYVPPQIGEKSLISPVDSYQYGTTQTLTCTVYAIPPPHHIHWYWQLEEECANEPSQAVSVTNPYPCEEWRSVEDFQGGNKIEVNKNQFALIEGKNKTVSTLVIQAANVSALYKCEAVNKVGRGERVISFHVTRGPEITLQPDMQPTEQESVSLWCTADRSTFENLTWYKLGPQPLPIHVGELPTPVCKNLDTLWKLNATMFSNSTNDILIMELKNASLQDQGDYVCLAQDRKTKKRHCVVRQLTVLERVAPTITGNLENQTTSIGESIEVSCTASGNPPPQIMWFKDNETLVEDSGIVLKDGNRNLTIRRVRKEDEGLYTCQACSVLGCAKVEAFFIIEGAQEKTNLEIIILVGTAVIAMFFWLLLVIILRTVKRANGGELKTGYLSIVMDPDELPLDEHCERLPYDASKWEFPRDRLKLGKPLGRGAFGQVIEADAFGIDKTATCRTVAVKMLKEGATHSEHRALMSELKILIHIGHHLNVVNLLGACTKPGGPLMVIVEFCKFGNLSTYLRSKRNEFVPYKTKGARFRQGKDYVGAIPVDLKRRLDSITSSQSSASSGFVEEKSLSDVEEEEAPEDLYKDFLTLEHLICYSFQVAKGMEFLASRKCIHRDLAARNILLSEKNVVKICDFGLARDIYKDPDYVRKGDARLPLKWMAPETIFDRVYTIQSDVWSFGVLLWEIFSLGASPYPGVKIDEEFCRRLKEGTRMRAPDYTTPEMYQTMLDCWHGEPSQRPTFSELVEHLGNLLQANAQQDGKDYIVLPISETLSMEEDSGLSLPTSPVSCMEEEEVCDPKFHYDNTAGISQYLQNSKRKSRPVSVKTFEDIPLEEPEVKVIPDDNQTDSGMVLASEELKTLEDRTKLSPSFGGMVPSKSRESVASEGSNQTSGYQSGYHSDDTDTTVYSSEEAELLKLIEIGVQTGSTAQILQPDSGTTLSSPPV
Sequence of RAC-alpha serine/threonine-protein kinase (P31749 whole entry): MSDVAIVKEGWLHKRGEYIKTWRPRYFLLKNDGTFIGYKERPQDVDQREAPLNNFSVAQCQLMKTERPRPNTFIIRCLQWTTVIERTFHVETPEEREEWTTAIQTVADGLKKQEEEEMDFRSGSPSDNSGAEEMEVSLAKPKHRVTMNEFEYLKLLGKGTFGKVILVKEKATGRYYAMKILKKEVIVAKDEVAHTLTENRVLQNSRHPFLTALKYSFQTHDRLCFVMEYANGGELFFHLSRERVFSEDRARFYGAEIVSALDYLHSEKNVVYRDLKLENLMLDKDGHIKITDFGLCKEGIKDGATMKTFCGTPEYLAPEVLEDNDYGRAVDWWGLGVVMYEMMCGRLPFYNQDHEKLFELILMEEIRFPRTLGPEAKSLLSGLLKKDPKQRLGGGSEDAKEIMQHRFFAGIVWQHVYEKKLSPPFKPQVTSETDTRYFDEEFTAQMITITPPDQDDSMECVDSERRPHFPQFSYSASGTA
Sequence of Cyclin-dependent kinase 4 (P11802 whole entry): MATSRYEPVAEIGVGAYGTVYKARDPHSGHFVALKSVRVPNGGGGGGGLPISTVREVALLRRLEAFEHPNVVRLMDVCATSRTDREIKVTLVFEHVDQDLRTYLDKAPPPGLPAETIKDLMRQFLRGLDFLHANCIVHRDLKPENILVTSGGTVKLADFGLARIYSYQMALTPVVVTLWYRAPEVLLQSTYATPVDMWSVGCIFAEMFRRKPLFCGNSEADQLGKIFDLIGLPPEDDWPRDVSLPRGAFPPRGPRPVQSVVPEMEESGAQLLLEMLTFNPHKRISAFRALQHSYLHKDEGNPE
Sequence of Epidermal growth factor receptor (P00533 whole entry): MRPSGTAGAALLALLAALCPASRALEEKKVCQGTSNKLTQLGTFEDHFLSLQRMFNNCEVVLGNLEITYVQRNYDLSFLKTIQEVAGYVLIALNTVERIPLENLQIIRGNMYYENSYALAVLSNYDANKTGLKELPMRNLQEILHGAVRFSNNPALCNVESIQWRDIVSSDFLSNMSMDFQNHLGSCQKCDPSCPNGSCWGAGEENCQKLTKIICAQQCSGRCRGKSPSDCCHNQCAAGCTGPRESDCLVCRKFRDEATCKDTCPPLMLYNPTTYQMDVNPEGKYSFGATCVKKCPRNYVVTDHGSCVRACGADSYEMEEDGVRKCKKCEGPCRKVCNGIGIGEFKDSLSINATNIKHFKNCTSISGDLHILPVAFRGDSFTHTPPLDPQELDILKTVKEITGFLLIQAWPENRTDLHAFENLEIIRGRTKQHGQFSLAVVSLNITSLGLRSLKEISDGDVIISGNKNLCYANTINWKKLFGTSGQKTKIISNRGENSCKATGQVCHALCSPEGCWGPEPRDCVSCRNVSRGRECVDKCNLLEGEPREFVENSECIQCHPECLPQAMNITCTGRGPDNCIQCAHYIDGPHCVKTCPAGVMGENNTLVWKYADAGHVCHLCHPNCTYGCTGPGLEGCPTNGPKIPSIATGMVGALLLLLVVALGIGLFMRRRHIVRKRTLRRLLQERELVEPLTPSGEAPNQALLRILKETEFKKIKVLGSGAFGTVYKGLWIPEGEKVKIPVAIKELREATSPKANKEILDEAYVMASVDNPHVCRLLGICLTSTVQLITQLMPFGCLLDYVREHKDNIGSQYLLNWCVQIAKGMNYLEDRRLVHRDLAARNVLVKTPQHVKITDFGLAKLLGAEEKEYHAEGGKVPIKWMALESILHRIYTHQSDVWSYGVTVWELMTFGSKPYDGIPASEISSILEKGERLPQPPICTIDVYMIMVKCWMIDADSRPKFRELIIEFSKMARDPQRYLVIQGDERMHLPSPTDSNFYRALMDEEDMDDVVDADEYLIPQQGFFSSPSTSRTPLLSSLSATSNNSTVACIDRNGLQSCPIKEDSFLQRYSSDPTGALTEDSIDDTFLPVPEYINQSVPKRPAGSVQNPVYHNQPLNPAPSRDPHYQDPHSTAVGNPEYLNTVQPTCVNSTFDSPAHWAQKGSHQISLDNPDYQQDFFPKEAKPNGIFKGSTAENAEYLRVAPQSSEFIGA

For `COc1cc(Nc2c(C#N)cnc3cc(C#CCCN4CCN(C)CC4)ccc23)cc(OC)c1OC`, the IC50 in [1] was 220 nM; in data set [2] it was 2100 nM.

As for `COc1cc(Nc2c(C#N)cnc3ccc(C#CCCN4CCN(C)CC4)cc23)c(Cl)cc1Cl`, the IC50 in data set [1] amounted to 230 nM; in [2], 3900 nM.

As to `COc1cc(Nc2c(C#N)cnc3cc(C#CCCN(C)C)c(OC)cc23)c(Cl)cc1Cl`, the IC50 in data set [1] amounted to 4.9 nM; in data set [2] it was 250 nM.

Turning to `COc1cc(Nc2c(C#N)cnc3cc(C#CCCN4CCNCC4)c(OC)cc23)c(Cl)cc1Cl`, the IC50 amounted to 5.4 nM in data set [1] and 520 nM in data set [2].

Take `COc1cc2c(Nc3ccc(Cl)cc3Cl)c(C#N)cnc2cc1C#CCCN1CCN(C)CC1`: the values for the IC50 in data set [1] and in [2] were 8.7 nM and 430 nM, respectively.

On to `COc1cc(Nc2c(C#N)cnc3cc(C#CCCN4CCN(C)CC4)c(OC)cc23)c(Cl)cc1Cl`, for which the IC50 in data set [1] is 3.9 nM; in data set [2] it was 73 nM; in data set [3] it was greater than 5000 nM; in data set [4] it was greater than 5000 nM; in [5], greater than 5000 nM; in data set [6], greater than 5000 nM. Besides, in data set [10], the IC50 was 720 nM. The Papp in data set [7] came to 6.8 ×10⁻⁶ cm/s. For the same compound, the solubility is 5 µg/mL (≈ 9.53 µM) in data set [8] and greater than 100 µg/mL in data set [9].

Turning to `COc1cc(Nc2c(C#N)cnc3cc(C#CCN4CCN(C)CC4)c(OC)cc23)c(Cl)cc1Cl`, the IC50 in data set [1] is 11 nM; in [2], 740 nM.

With `CCOc1cc2c(Nc3cc(OC)c(Cl)cc3Cl)c(C#N)cnc2cc1C#CCCN1CCN(C)CC1`, the IC50 in data set [1] came out at 4.1 nM; in [2], 130 nM.

Turning to `COc1cc(Nc2c(C#N)cnc3cc(C#CCCN4CCN(C)CC4)ccc23)c(Cl)cc1Cl`, the IC50 in data set [1] was 28 nM; in data set [2] it was 1700 nM.

The compound `COc1cc(Nc2c(C#N)cnc3cc(C#CCCN4CCOCC4)c(OC)cc23)c(Cl)cc1Cl` came in with an IC50 in [2] of 190 nM.

On to `COc1cc2c(Nc3cc(OC)c(OC)c(OC)c3)c(C#N)cnc2cc1C#CCCN1CCN(C)CC1`, for which the IC50 in data set [1] is 21 nM; in data set [2] it was 590 nM.
